Measurements from US9981940B2, “Aryl sulfide derivatives and aryl sulfoxide derivatives as acaricides and insecticides” (BAYER CROPSCIENCE AKTIENGESELLSCHAFT, priority 2013, dated 2018).

Tests used:
Tetranychus urticae = Tetranychus urticae spray test, OP-resistant (TETRUR); assay type: in vivo; settings: after 6 days; for pest or weed control at 500 g/ha: Tetranychus urticae, 144 h, read-out: efficacy
Procedure, shortened: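 Bean leaf discs infested with all stages of an OP-resistant Tetranychus urticae strain sprayed with compound in acetone/DMF with alkylaryl polyglycol ether emulsifier, diluted in water. Efficacy in % scored after 6 days; 100% means all mites killed.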

[1] = log P by HPLC (OECD Guideline 117), method [b] neutral range; assay type: physicochemical; settings: HPLC; for logP[b]: method [b] neutral range; for chromatographic logP: reversed-phase C18 HPLC column, neutral range, pH 7.8
Method: (§1) The log P values were determined analogously to OECD Guideline 117 (EC Directive 92/69/EEC) by HPLC (high-performance liquid chromatography) using reversed-phase columns (C 18), by the following methods:
[b] The LC-MS determination in the neutral range is effected at pH 7.8 with 0.001 molar aqueous ammonium hydrogencarbonate solution and acetonitrile as eluents; linear gradient from 10% acetonitrile to 95% acetonitrile.

[2] = log P by HPLC (OECD Guideline 117), method [a] acidic range; assay type: physicochemical; settings: for logP[a]: HPLC, method [a] acidic range; for chromatographic logP: reversed-phase C18 HPLC column, acidic range
Method: as §1
[a] The LC-MS determination in the acidic range is effected at pH 2.7 with 0.1% aqueous formic acid and acetonitrile (contains 0.1% formic acid) as eluents; linear gradient from 10% acetonitrile to 95% acetonitrile.

[3] = pH 2.7, HPLC method [a], read-out: logP[a]
[4] = pH 2.7, HPLC, pH 2.7, read-out: log P[a]

Structure (SMILES)	logP[b] [1]	logP[a] [2]	chromatographic logP [1]	chromatographic logP [2, 3]	chromatographic logP [2, 4]	efficacy (Tetranychus urticae; application rate of 100 g/ha)	efficacy (Tetranychus urticae; application rate of 500 g/ha)	pest or weed control at 500 g/ha (Tetranychus urticae; application rate of 500 g/ha)
COc1cc(F)c(-n2nc(OCC(F)(F)F)n(C3CC3)c2=O)cc1SCC(F)(F)F [Example 188]	3.46	3.49				90%		
O=c1n(-c2ccc(C(F)(F)F)c(SCC(F)(F)F)c2)nc(OCC(F)(F)F)n1C1CC1 [Example 189]	4.48	4.55					100%	
Cc1cc(F)c(-n2nc(N(C)C)n(C)c2=O)cc1SCC(F)(F)F [Example 190]	2.81	2.84					90%	
Cc1ccc(-n2nc(-n3nc(Oc4ccccc4)n(C)c3=O)n(C)c2=O)cc1SCC(F)(F)F [Example 192]	3.68	3.76					90%	
Cc1cc(F)c(-n2nc(N(C)C)n(C3CC3)c2=O)cc1SCC(F)(F)F [Example 193]	3.15	3.20					100%	
Cc1cc(F)c(-n2nc(C3CC3)n(N(C)C)c2=O)cc1SCC(F)(F)F [Example 195, 5-Cyclopropyl-4-(dimethylamino)-2-{2-fluoro-4-methyl-5-[(2,2,2-trifluoroethyl)sulphanyl]phenyl}-2,4-dihydro-3H-1,2,4-triazol-3-one]			3.73	3.75	3.75			100%
Cc1cc(F)c(-n2nc(C3CC3)n(N)c2=O)cc1SCC(F)(F)F [Example 196]	2.61	2.67					100%	
Cc1cc(F)c(-n2nc(C3CC3)n(N(C)C)c2=O)cc1[S+]([O-])CC(F)(F)F (stereo not shown) [Example 197, 5-Cyclopropyl-4-(dimethylamino)-2-{2-fluoro-4-methyl-5-[(2,2,2-trifluoroethyl)sulphinyl]phenyl}-2,4-dihydro-3H-1,2,4-triazol-3-one]			2.59	2.6	2.6			100%
COCc1nn(-c2cc(SCC(F)(F)F)c(C)cc2F)c(=O)n1N [Example 198]	2.22	2.28					100%	
CNn1c(C2CC2)nn(-c2cc(SCC(F)(F)F)c(C)cc2F)c1=O [Example 199]	3.07	3.15					100%	
Cc1cc(F)c(-n2nc(C)n(N)c2=O)cc1SCC(F)(F)F [Example 200]	2.13	2.18					100%	
Cc1cc(F)c(-n2nc(C)n(N(C)C)c2=O)cc1SCC(F)(F)F [Example 201]	3.14	3.17					100%	
CNn1cnn(-c2cc(SCC(F)(F)F)c(C)cc2F)c1=O [Example 203]	2.27	2.32					100%	
Cc1cc(F)c(-n2nc(C(C)C)n(N)c2=O)cc1[S+]([O-])CC(F)(F)F (stereo not shown) [Example 204]	1.95	1.96					100%	
Cc1cc(F)c(-n2nc(C(F)(F)F)n(N)c2=O)cc1SCC(F)(F)F [Example 205]	3.08	3.15					100%	
Cc1cc(F)c(-n2nc(C3CC3)n(N)c2=O)cc1[S+]([O-])CC(F)(F)F (stereo not shown) [Example 206]	1.72	1.75					100%	
COCc1nn(-c2cc([S+]([O-])CC(F)(F)F)c(C)cc2F)c(=O)n1N (stereo not shown) [Example 207]	1.45	1.47					100%	
CNn1c(C2CC2)nn(-c2cc([S+]([O-])CC(F)(F)F)c(C)cc2F)c1=O (stereo not shown) [Example 208]	2.05	2.09					100%	
Cc1cc(F)c(-n2nc(C)n(N(C)C)c2=O)cc1[S+]([O-])CC(F)(F)F (stereo not shown) [Example 210]	2.09	2.09					100%	
Cc1cc(F)c(-n2ncn(N)c2=O)cc1SCC(F)(F)F [Example 211]	2.01	2.02					100%	
Cc1ccc(-n2nc(C(F)(F)F)n(N)c2=O)cc1SCC(F)(F)F [Example 212]	3.37	3.38					90%	
CNn1c(N(C)C)nn(-c2cc(SCC(F)(F)F)c(C)cc2F)c1=O [Example 216]	2.99	3.03					100%	
CNn1c(N(C)C)nn(-c2cc([S+]([O-])CC(F)(F)F)c(C)cc2F)c1=O (stereo not shown) [Example 217]	1.98	2.02					90%	
CNc1nn(-c2cc(SCC(F)(F)F)c(C)cc2F)c(=O)n1N [Example 218]	2.04	2.06					90%	

Continued, in another order:

logP[b] [1]	logP[a] [2]	chromatographic logP [1]	chromatographic logP [2, 3]	chromatographic logP [2, 4]	Structure (SMILES)	efficacy (Tetranychus urticae; application rate of 100 g/ha)	efficacy (Tetranychus urticae; application rate of 500 g/ha)	pest or weed control at 500 g/ha (Tetranychus urticae; application rate of 500 g/ha)
2.48	2.51				Cc1cc(F)c(-n2nc(N(C)C)n(N)c2=O)cc1SCC(F)(F)F [Example 220]		90%	
1.60	1.63				Cc1cc(F)c(-n2nc(N(C)C)n(N)c2=O)cc1[S+]([O-])CC(F)(F)F (stereo not shown) [Example 221]		100%	
3.17	3.22				CCN(CC)c1nn(-c2cc(SCC(F)(F)F)c(C)cc2F)c(=O)n1N [Example 222]		90%	
2.71	2.74				Cc1cc(F)c(-n2nc(NC(C)C)n(N)c2=O)cc1SCC(F)(F)F [Example 224]		90%	
1.74	1.76				COn1c(C)nn(-c2cc([S+]([O-])CC(F)(F)F)c(C)cc2F)c1=O (stereo not shown) [Example 226]		100%	
2.07	2.10				Cc1cc(F)c(-n2nc([S+]([O-])CC(F)F)n(C3CC3)c2=O)cc1[S+]([O-])CC(F)(F)F (stereo not shown) [Example 229]		90%	
2.40	2.45				Cc1cc(F)c(-n2nc([S+](C)[O-])n(C3CC3)c2=O)cc1SCC(F)(F)F (stereo not shown) [Example 230]		100%	
2.21	2.25				Cc1cc(F)c(-n2nc([S+](C)[O-])n(C)c2=O)cc1SCC(F)(F)F (stereo not shown) [Example 232]		90%	
1.44	1.47				Cc1cc(F)c(-n2nc([S+](C)[O-])n(C)c2=O)cc1[S+]([O-])CC(F)(F)F (stereo not shown) [Example 233]		100%	
2.65	2.68				CC[S+]([O-])c1nn(-c2cc(SCC(F)(F)F)c(C)cc2F)c(=O)n1C1CC1 (stereo not shown) [Example 234]		100%	
1.80	1.85				CC[S+]([O-])c1nn(-c2cc([S+]([O-])CC(F)(F)F)c(C)cc2F)c(=O)n1C1CC1 (stereo not shown) [Example 235]		100%	
2.98	3.05				CCC[S+]([O-])c1nn(-c2cc(SCC(F)(F)F)c(C)cc2F)c(=O)n1C1CC1 (stereo not shown) [Example 236]		90%	
2.08	2.14				CCC[S+]([O-])c1nn(-c2cc([S+]([O-])CC(F)(F)F)c(C)cc2F)c(=O)n1C1CC1 (stereo not shown) [Example 237]		100%	
2.92	2.99				Cc1cc(F)c(-n2nc([S+]([O-])C(C)C)n(C3CC3)c2=O)cc1SCC(F)(F)F (stereo not shown) [Example 238]		100%	
2.03	2.08				Cc1cc(F)c(-n2nc([S+]([O-])C(C)C)n(C3CC3)c2=O)cc1[S+]([O-])CC(F)(F)F (stereo not shown) [Example 239]		100%	
2.46	2.53				CCn1c([S+](C)[O-])nn(-c2cc(SCC(F)(F)F)c(C)cc2F)c1=O (stereo not shown) [Example 240]		100%	
		2.51	2.55	2.55	CC[S+]([O-])c1nn(-c2cc(SCC(F)(F)F)c(C)cc2F)c(=O)n1C (stereo not shown) [Example 243, 5-(Ethylsulphinyl)-2-{2-fluoro-4-methyl-5-[(2,2,2-trifluoroethyl)sulphanyl]phenyl}-4-methyl-2,4-dihydro-3H-1,2,4-triazol-3-one]			100%
		1.65	1.69	1.69	CC[S+]([O-])c1nn(-c2cc([S+]([O-])CC(F)(F)F)c(C)cc2F)c(=O)n1C (stereo not shown) [Example 244, 5-(Ethylsulphinyl)-2-{2-fluoro-4-methyl-5-[(2,2,2-trifluoroethyl)sulphinyl]phenyl}-4-methyl-2,4-dihydro-3H-1,2,4-triazol-3-one]			100%
1.95	1.99				CCC[S+]([O-])c1nn(-c2cc([S+]([O-])CC(F)(F)F)c(C)cc2F)c(=O)n1C (stereo not shown) [Example 246]		100%	
2.85	2.94				Cc1cc(F)c(-n2nc([S+]([O-])CC3CC3)n(C)c2=O)cc1SCC(F)(F)F (stereo not shown) [Example 247]		100%	
